Experimental data taken from paper PMC7946642, “Vacuolin-1 inhibits endosomal trafficking and metastasis via CapZβ” (Oncogene, 2021).

Target: T1, CapZβ (Homo sapiens, UniProt P47756)
T1 construct: gene CAPZB; recombinant CapZβ
Assay: isothermal titration calorimetry
Type: binding
Conditions: biotinylated vacuolin-1 analogue; labelled compound

T1 sequence (P47756 2-272): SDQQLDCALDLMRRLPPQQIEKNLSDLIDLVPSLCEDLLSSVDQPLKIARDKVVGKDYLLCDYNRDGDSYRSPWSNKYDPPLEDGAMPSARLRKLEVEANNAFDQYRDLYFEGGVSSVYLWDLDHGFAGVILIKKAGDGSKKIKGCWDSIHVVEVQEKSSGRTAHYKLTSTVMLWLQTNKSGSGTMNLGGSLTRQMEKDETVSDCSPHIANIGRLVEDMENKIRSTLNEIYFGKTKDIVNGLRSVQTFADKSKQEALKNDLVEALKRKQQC

Kd: ~3.1 µM
Substance: biotin-V1
